We go through seven molecules from patent US11944609B1, “Antifungal ionic liquid and Amphotericin B combination” (KING ABDULAZIZ UNIVERISTY, priority 2023, dated 2024).

Data set [1] can be described thus: Density measurement (Density Meter DMA 501). Format: physicochemical. To be noted: 298K, atmospheric pressure. The protocol: The uncertainties in the density measurements, considering the sample handling and purity, are determined to be with an accuracy of 0.0001 g/cm3.
In data set [2] the test system is C. auris. Kind of data set: Checkerboard microdilution assay of ionic liquids with amphotericin B, with varied ratio isobolograms. To be noted: for MIC of ionic liquids in combination with AmB: 1:1 combination with amphotericin B; for Average MIC values of individual compounds: alone; for FICb: fractional inhibitory concentration of amphotericin B; for FICa: fractional inhibitory concentration of the ionic liquid; for Type of interaction / ΣFIC: ionic liquid + amphotericin B; for Decrease in the MIC when used together: IPC8 + amphotericin B combination versus alone. Format: cell-based, Candida auris. The protocol: The type of interaction between ionic liquids and amphotericin B against C. auris was evaluated by the checkerboard microdilution method. The concentrations of ionic liquids used ranged from 5000-0.61 μg/mL, and amphotericin B was 64-0.06 μg/mL. Subsequently, equal volumes (50 μL) of ionic liquids and amphotericin B were dispensed into pre-determined wells, which were further supplemented with C. auris cells (0.5×103-2.5×10^3 cells/mL; 100 μL) followed by incubation at 35±2° C. for 24 h. Also, each experiment included DMSO (1%) was added as negative control along with growth and sterility controls. […] The interaction between the test compounds and amphotericin B was deduced according to the calculated coefficient of the sum of fractional inhibitory concentrations (ΣFIC).
[formula] MICa=MIC of the ionic liquids; MICb=MIC of amphotericin B. The FICI values were interpreted as ΣFIC≤0.5, synergy; ΣFIC>0.5-≤1, additivity; ΣFIC>1-<2, no interaction; ΣFIC≥2, antagonism.
(Dilution methods test growth across graded concentrations, often in twofold steps.)

Data set [3] can be described thus: Viscosity measurement (RHEOSENSE MicroVisc viscometer). To be noted: 298K, atmospheric pressure. Format: physicochemical.
In data set [4] the test system is C. auris. Kind of data set: Antifungal susceptibility by broth microdilution (MIC) and SDA plating (MFC). Format: cell-based, Candida auris. As to conditions: for Average MIC value / Average MFC value: compound alone, C. auris (2921); for Average MIC value: concentration giving 100% inhibition; for Average MFC value: no visible colonies on SDA after 24 h. As to the method:
In this work, the antifungal activity of the ionic liquids (IPC4-IPC12) against C. auris was investigated in terms of minimum inhibitory concentration (MIC) and minimum fungicidal concentration (MFC). A stock solution of 20 mg/mL was prepared in 1% Dimethyl sulfoxide (DMSO; Sigma-Aldrich, USA). Fourteen different concentrations of test ILs were prepared by performing serial dilution in a flat bottom 96-well microtiter plate, followed by the addition of C. auris cells (0.5×103-2.5×10^3 cells/mL; 100 μL) which gave us the final test concentrations of ILs (5000-0.61 μg/mL). Amphotericin B was used as a positive control, 1% DMSO as a negative control, and drug-free control was used in each set of experiments. The optical density was determined at a wavelength of 600 nm using SpectraMax iD3 multi-mode microplate reader, and the concentration resulting in 100% inhibition was picked up as the MIC value. Post-MIC evaluation, MFC was estimated by administrating 10 μL of samples from the wells displaying MIC and beyond on a Sabouraud Dextrose Agar (SDA) plate. The plates were incubated at 35±2° C. for 24 h, and the concentration resulting in no visible colonies was documented as MFC value for respective ionic liquids.

For data set [5], the system named is C. auris. The experiment in a line: In vitro time-kill assay. Format: cell-based, Candida auris. As to conditions: for Average log10 CFU/mL: healthy control 7.78. The protocol: The assay for determining the time-kill kinetics values of IPC8 against C. auris was carried out at various concentrations (½, 1, 2, and 4 times the MIC) against C. auris. The C. auris cell suspension with a starting inoculum of around 1×105 to 5×10^5 CFU/mL was incubated with/without IPC8 at 35° C.±2° C. and 150 rpm. Aliquots (100 μL) were taken out at predetermined time points (0, 2, 4, 6, 8, 12, and 24 h), and for determining CFU counts, the aliquots were serially diluted in sterile water and plate (20 μL) on SDA growth medium. The plates were incubated at 35° C.±2° C. for 24 to 48 h, and the number of colonies was counted using a colony counter. The experiment was performed in duplicate, and the result is articulated in log 10 viable CFU/mL.

The test system of data set [6] is horse red blood cells (H-RBC). The experiment in a line: Haemolytic activity (cytotoxicity on red blood cells). In kind it is cell-based. The protocol:
The cytotoxicity of IPC8 on horse red blood cells (H-RBC) was checked by conducting a cytotoxicity assay. Briefly, the RBC was separated from the horse blood and was thoroughly washed with NaCl (150 mM) solution. Thereafter, RBC suspension (2%) was prepared in sterile PBS, followed by the addition (180 μL) to a microcentrifuge tube containing […] ([…]), the microcentrifuge tubes were kept aside for 45 min at 37° C. followed by centrifugation at 1300×g for 5 min. The supernatant (100 μL) was collected in a separate tube and mixed with 900 μL of sterile PBS. Aliquots (200 μL) were taken from each dilution and transferred to a 96-well flat bottom microtiter plate, and optical density was measured at 540 nm (SpectraMax iD3 multi-mode microplate reader, Molecular Devices). The negative control contained RBC suspension in PBS, and the positive control had RBC treated with 0.1% Triton X-100. To calculate the percentage of hemolysis below formula was used.

Where [7] appears, read: nine ratios of IPC8 and amphotericin B (10:90 to 90:10), isobolograms.

As to `CCCCCCCCCCCC[n+]1ccn2ccccc21.[Br-]` [IPC12, 1-Dodecylimidazo[1,2-a] pyridinium bromide], the Density in data set [1] was found to be 1.0049 g/mL. Also, in the data set with C. auris [2], the “MIC of ionic liquids in combination with AmB” value (“MIC of ionic liquids” for short) came to 156.25 µg/mL, the “Average MIC values of individual compounds” value (shortened to “Average MIC values”) came out at 312.5 µg/mL, the FICb was found to be 0.5 and the FICa came to 0.25. In the data set on C. auris [2], the Type of interaction result is “ADD (ΣFIC>0.5-≤1, additivity)” and the ΣFIC is recorded as 0.75. The same molecule had a Viscosity in data set [3] of 28.60 mPa. Moreover, in the data set with C. auris [4], the “Average MIC value” was 312.5 µg/mL and the “Average MFC value” came to 625 µg/mL.
In data set [1], `CCCCCCCCCC[n+]1ccn2ccccc21.[Br-]` [IPC10, 1-Decylimidazo[1,2-a] pyridinium bromide] registered a Density of 1.0081 g/mL. Further, in the data set on C. auris [2], the “MIC of ionic liquids” value is 19.53 µg/mL, the “Average MIC values” value stood at 78.12 µg/mL, the FICb is reported as 0.5 and the FICa worked out at 0.25. In the data set on C. auris [2], the Type of interaction result is given as “ADD (ΣFIC>0.5-≤1, additivity)” and the ΣFIC is recorded as 0.75. In addition, the Viscosity in data set [3] was determined as 27.20 mPa. In the data set on C. auris [4], the “Average MIC value” is 78.12 µg/mL and the “Average MFC value” came to 312.5 µg/mL.
For `CCCCCCCC[n+]1ccn2ccccc21.[Br-]` [IPC8, 1-Octylimidazo[1,2-a] pyridinium bromide], the Density in data set [1] was 1.0094 g/mL. In addition, in the data set with C. auris [2], the “MIC of ionic liquids” value is 1.22 µg/mL, the “Decrease in the MIC when used together” value is given as “four-fold”, the “Average MIC values” value amounted to 4.88 µg/mL and the FICb came to 0.125. Moreover, in the data set on C. auris [2], the FICa is 0.25; the Type of interaction entry is “SYN (ΣFIC≤0.5, synergy)”; the ΣFIC is recorded as 0.38. In the data set on C. auris [2] (setting [7]), the “Number of ratios (out of nine) with additive interaction” value was “two” and the “Number of ratios (out of nine) with strong synergistic effect” value is reported as “seven”. Also, the Viscosity in data set [3] was 25.21 mPa. Also, in the data set on C. auris [4] (IPC8 versus other ionic liquids), the “Fold lower MIC and MFC values compared to other tested ionic liquids” value fell in the range of 3 to 8 fold. Also, in the data set with C. auris [4], the “Average MIC value” came out at 4.88 µg/mL and the “Average MFC value” amounted to 9.76 µg/mL. The “Time to candidacidal endpoint” value with C. auris [5] (2 times MIC) was 12 h. For the same molecule, in the data set with C. auris [5] (MIC), the “Time to 50% reduction in the log10 CFU/mL from the inoculum” value is 12 h. Also, in the data set on C. auris [5] (after 24 hr exposure to MIC), the “Average log10 CFU/mL” value is on record as 4.67 log10 CFU/mL. For the same molecule, the “Average log10 CFU/mL” value in the data set with C. auris [5] (after 24 hr exposure to ½ MIC) turned out to be 5.8 log10 CFU/mL. Moreover, in the data set on C. auris [5] (four times MIC), the “Time to 50% reduction in the number of CFU” value amounted to 2 h and the “Time to candidacidal endpoint” value is 24 h. Moreover, the “Nature of activity in time-kill curve” value with C. auris [5] (kill of ≥log 3, concentration- and time-dependent) is listed as “fungicidal”. In addition, the “Time to 50% reduction in the number of CFU” value in the data set on C. auris [5] (two times MIC) turned out to be 4 h. For the same molecule, the Haemolysis in data set [6] (156.25 μg/mL) turned out to be 16.14%.
Turning to `C[C@@H]1[C@H](O)[C@@H](C)/C=C/C=C/C=C/C=C/C=C/C=C/C=C/[C@H](O[C@@H]2O[C@H](C)[C@@H](O)[C@H](N)[C@@H]2O)C[C@@H]2O[C@](O)(C[C@@H](O)C[C@@H](O)[C@H](O)CC[C@@H](O)C[C@@H](O)CC(=O)O[C@H]1C)C[C@H](O)[C@H]2C(=O)O` [Amphotericin B], in the data set with C. auris [2], the “Decrease in the MIC when used together” value was “four-fold” and the “Average MIC values” value was found to be 2.0 µg/mL. For the same molecule, in the data set with C. auris [4], the “Average MIC value” was determined as 2.0 µg/mL and the “Average MFC value” came out at 4.0 µg/mL. In addition, in the data set on C. auris [4] (listed as amphotericin B), the “Average MIC value” was 2 µg/mL and the “Average MFC value” came out at 4 µg/mL.
Take triton X-100 [reference compound]: the “Haemolysis (observation)” value in data set [6] is listed as “clear haemolysis”.
The molecule `CCCC[n+]1ccn2ccccc21.[Br-]` [IPC4, 1-Butylimidazo[1,2-a] pyridinium bromide] had a Density in data set [1] of 1.0310 g/mL. Besides, in the data set on C. auris [2], the “MIC of ionic liquids” value worked out at 39.06 µg/mL, the “Average MIC values” value was determined as 78.12 µg/mL, the FICb was 1.0 and the FICa came out at 0.5. Moreover, in the data set on C. auris [2], the Type of interaction result was “No INT (ΣFIC>1-<2, no interaction)” and the ΣFIC came out at 1.5. The molecule also displayed a Viscosity in data set [3] of 4.14 mPa. In the data set on C. auris [4], the “Average MIC value” was determined as 78.12 µg/mL and the “Average MFC value” came to 312.5 µg/mL.
Molecule `CCCCCC[n+]1ccn2ccccc21.[Br-]` [IPC6, 1-Hexylimidazo[1,2-a] pyridinium bromide] returned a Density in data set [1] of 1.0102 g/mL. In the data set with C. auris [2], the “MIC of ionic liquids” value was found to be 9.76 µg/mL, the “Average MIC values” value turned out to be 39.06 µg/mL, the FICb worked out at 0.25 and the FICa worked out at 0.24. In addition, in the data set with C. auris [2], the Type of interaction result is reported as “SYN (ΣFIC≤0.5, synergy)” and the ΣFIC is reported as 0.49. In addition, in data set [3], the Viscosity stood at 14.7 mPa. Moreover, in the data set on C. auris [4], the “Average MIC value” stood at 39.06 µg/mL and the “Average MFC value” was found to be 78.12 µg/mL.
